In brackets after ≈: the same amount, converted by molar mass.
Legend:
tobacco cutworm = assay: whole plant or invertebrate; assay type: in vivo; details: for LC50: 48 h, read-out: LC50 (median lethal concentration); for Relative Efficacy (reference compound: 100): from LC50, tobacco cutworm, reference = racemate with same X
Excerpt: (§1) 10 parts of each of the compounds of this invention, (1), (2), (3), (4) and (5) was mixed with 15 parts of Sorpol 3005x (a registered trademark of Toho Chemical Co., Ltd.) and 75 parts of xylene, and the mixture was thoroughly stirred to provide a 10% emulsifiable concentrate.
(§2) In the following test examples, the "racemate" (conventional product) of each of the compounds of the formula (I) was formulated in the same procedures as in each test example and then used as a reference compound.
Each of the emulsifiable concentrates prepared from the compounds of this invention, (1), (2), (3), (4) and (5) in the procedures described in Formulation Example 1 was diluted with water to a predetermined concentration, and a sticker containing 20% of an alkylphenol polyethylene glycol ether and 12% of a salt of lignin sulfonic acid was added to the solution in an amount of 1 ml per 3,000 ml of the solution. […] Ten 3rd-instar larvae of tobacco cutworm were further immersed in each solution for 10 seconds. The leaves and cutworms were air-dried and placed in each plastic cup having a diameter of 10 cm and a height of 4 cm. 48 hours later, the alive and dead was evaluated to obtain the LC50 (median lethal concentration) (ppm).

[1] = test system: female adult CSMA-strain houseflies; assay: Test Example 2: topical application to thorax, mortality after 24 hours; assay type: in vivo, housefly; details: for Relative Efficacy (reference compound: 100): from LD50, housefly, reference = racemate with same X; for LD50 (median lethal dose): topical, 0.5 μl acetone solution to thorax, 24 hours
Description: as §2
The compounds of this invention, (1), (2), (3), (4) and (5) were diluted with acetone to a predetermined concentration, and 0.5 μl of each solution was topically applied to thorax of female adult CSMA-strain houseflies with a microsyringe. The flies were placed in a plastic cup having a diameter of 12 cm containing therein cotton absorbent impregnated with 3% sugar water. 24 hours later, the alive and dead was evaluated to determine the LD50 (median lethal dose) (μg/insect).

carmine mites = assay: Test Example 4: emulsifiable concentrate applied to mite-infested potted kidney beans; assay type: in vivo, carmine mite; details: 10% emulsifiable concentrate diluted 500-fold, 10 ml/pot; 10 days
Description: as §1
10 to 15 female adult carmine mites were placed on each leaf of potted kidney beans (2-leaf stage) 9 days old after seeding. After standing in a constant temperature room at 27° C. for a week, a lot of mites in various growth stages were observed on the beans. Each of the emulsifiable concentrates prepared from the compounds of this invention (1) and (2) in the procedures described in Formulation Example 1 was diluted 500-fold with water and applied to the beans on a turntable at a rate of 10 ml/pot.

[2] = test system: adult green rice leafhoppers; assay: Test Example 3: dust applied to rice seedlings, mortality after 24 hours; assay type: in vivo, green rice leafhopper; details: 0.5% dust, 2 kg/10 ares, 200 mmHg
Description: 0.5 part of each of the compounds of this invention, (1), (2), (3), (4) and (5) was dissolved in 20 parts of acetone. To the solution was added 99.5 parts of 300 mesh clay, and the mixture was thoroughly stirred. The acetone was distilled off to provide a 0.5% dust.
The dusts prepared from the compounds of this invention, (1), (2), (3), (4) and (5) in the procedures described in Formulation Example 2 were applied to rice seedlings planted in each 3 inch pot and 20 days old after seeding. A bell-jar duster was used to apply each dust at a pressure of 200 mmHg at a rate of 2 kg/10 ares. After the treatment, each pot was enclosed with a metal screen cage in which about 30 adult green rice leafhoppers were released.

[3] = test system: harmful insects and/or mites; assay: Insecticidal and/or acaricidal activity of optical isomers (general statement); assay type: in vivo; details: Aα-isomer, X = F versus other halogens

CC(C)C(C(=O)OC(C#N)c1cccc(Oc2ccc(Cl)cc2)c1)c1ccc(Cl)cc1 (racemic) [(b), reference compound]
LC50 (tobacco cutworm): 15.2 µg/mL (≈ 33.5 µM)
Relative Efficacy (reference compound: 100) (tobacco cutworm): 100
Relative Efficacy (reference compound: 100) [1]: 100
LD50 (median lethal dose) [1]: 0.062 μg/insect

CC(C)C(C(=O)OC(C#N)c1cccc(Oc2ccc(Br)cc2)c1)c1ccc(Cl)cc1 (racemic) [(c), reference compound]
LC50 (tobacco cutworm): 20 µg/mL (≈ 40.1 µM)
Relative Efficacy (reference compound: 100) (tobacco cutworm): 100
Relative Efficacy (reference compound: 100) [1]: 100
LD50 (median lethal dose) [1]: 0.080 μg/insect

CC(C)C(C(=O)OC(C#N)c1cccc(Oc2ccc(F)cc2)c1)c1ccc(Cl)cc1 (racemic) [Reference Compound (a), reference compound]
LC50 (tobacco cutworm): 5 µg/mL (≈ 11.4 µM)
Relative Efficacy (reference compound: 100) (tobacco cutworm): 100
Relative Efficacy (reference compound: 100) [1]: 100
LD50 (median lethal dose) [1]: 0.041 μg/insect

CC(C)[C@H](C(=O)OC(C#N)c1cccc(Oc2ccc(F)cc2)c1)c1ccc(Cl)cc1 (stereo partly shown) [Compound (1)]
damage to mite-released kidney beans (carmine mites): little damaged
LC50 (tobacco cutworm): 2.3 µg/mL (≈ 5.25 µM)
Relative Efficacy (reference compound: 100) (tobacco cutworm): 217
Relative Efficacy (reference compound: 100) [1]: 216
LD50 (median lethal dose) [1]: 0.019 μg/insect
alive and dead evaluation of leafhoppers [2]: completely killed

CC(C)[C@H](C(=O)O[C@H](C#N)c1cccc(Oc2ccc(F)cc2)c1)c1ccc(Cl)cc1 [Compound (2)]
damage to mite-released kidney beans (carmine mites): little damaged
LC50 (tobacco cutworm): 1.2 µg/mL (≈ 2.74 µM)
Relative Efficacy (reference compound: 100) (tobacco cutworm): 417
Relative Efficacy (reference compound: 100) [1]: 410
LD50 (median lethal dose) [1]: 0.010 μg/insect
alive and dead evaluation of leafhoppers [2]: completely killed
activity compared with other halogen-substituted compounds [3]: stronger activity than other halogen-substituted compounds

CC(C)[C@H](C(=O)O[C@H](C#N)c1cccc(Oc2ccc(Cl)cc2)c1)c1ccc(Cl)cc1 [Compound (3)]
LC50 (tobacco cutworm): 3.9 µg/mL (≈ 8.58 µM)
Relative Efficacy (reference compound: 100) (tobacco cutworm): 390
Relative Efficacy (reference compound: 100) [1]: 388
LD50 (median lethal dose) [1]: 0.016 μg/insect
alive and dead evaluation of leafhoppers [2]: completely killed

CC(C)[C@H](C(=O)OC(C#N)c1cccc(Oc2ccc(Br)cc2)c1)c1ccc(Cl)cc1 (stereo partly shown) [Compound (4)]
LC50 (tobacco cutworm): 9.5 µg/mL (≈ 19 µM)
Relative Efficacy (reference compound: 100) (tobacco cutworm): 211
Relative Efficacy (reference compound: 100) [1]: 229
LD50 (median lethal dose) [1]: 0.035 μg/insect
alive and dead evaluation of leafhoppers [2]: completely killed

CC(C)[C@H](C(=O)O[C@H](C#N)c1cccc(Oc2ccc(Br)cc2)c1)c1ccc(Cl)cc1 [Compound (5)]
LC50 (tobacco cutworm): 4.2 µg/mL (≈ 8.42 µM)
Relative Efficacy (reference compound: 100) (tobacco cutworm): 476
Relative Efficacy (reference compound: 100) [1]: 444
LD50 (median lethal dose) [1]: 0.018 μg/insect
alive and dead evaluation of leafhoppers [2]: completely killed

Reference: US4293504A, “Process for preparing optically active α-cyano-3-(4-halogenophenoxy)-benzyl 2-(4-chlorophenyl)isovalerate” (Sumitomo Chemical Company, Limited, priority 1979, dated 1981)
